Measurements: patent US20200385789A1, “METHODS OF ASSESSING TELOMERES” (Children's Medical Research Institute, priority 2017, published 2020)

System: IMR90 primary human foetal lung fibroblasts
Experiment: Telomere length by telomere fibre-FISH (TFF) after exposure of cells to inhibitors
Assay type: cell-based
Conditions: 0.1 μM aphidicolin and/or 0.2 μM INK128, harvested 7 days after exposure, versus DMSO alone (untreated)
Procedure: IMR90 primary human foetal lung fibroblasts were plated and 1 day later were exposed to aphidicolin, mTORi, aphidicolin+mTORi, or DMSO alone (untreated). Cells were harvested a further 7 days later and telomere length was assessed by TFF. (A) Representative imaging data of DNA fibres: Left panel—expanded view of telomere fibre fish imaging data. Center and right panels—close up of the boxes 1-5 shown on the left panel. Boxes are drawn around the telomere signals and the length in μm and kb is indicated. (B). Telomere length presented in a Tukey box plot. “+” is the mean, **=P<0.01. TFF was used to measure telomere length in cells exposed to one or both of two inhibitors: aphidicolin and an mTOR inhibitor. Cells (IMR90 primary human foetal lung fibroblasts) were plated and one day later were exposed to 0.1 μM aphidicolin, 0.2 μM of INK128 (an mTOR inhibitor), aphidicolin+INK128, or DMSO alone (untreated). Cells were harvested a further 7 days later and telomere length was assessed by TFF, essentially as described above.

Compound: CC(C)n1nc(-c2ccc3oc(N)nc3c2)c2c(N)ncnc21 [INK128]
- Telomere length compared with untreated cells: telomere length in untreated cells was significantly greater

Compound: C[C@@]1(CO)[C@H](O)CC[C@@]2(C)[C@H]1CC[C@H]1C[C@@H]3C[C@@]12CC[C@]3(O)CO [aphidicolin]
- Telomere length compared with untreated cells: telomere length in untreated cells was significantly greater
